# Results published in patent US20040166151A1, “Lipid-based drug delivery systems containing phospholipase A2 degradable lipid derivatives and the therapeutic uses thereof” (priority 2000, published 2004).
# What was measured:
# extracellular PLA2 = molecular target: T1, extracellular PLA2 (Agkistrodon piscivorus piscivorus, UniProt P51972); assay: Effect of cholesterol content of liposomes on extracellular PLA2 activity; type: biochemical
# T1 construct: Purified snake venom PLA2 (Agkistrodon piscivorus piscivorus) was a generous gift; tissue gift from dr; R. L. Biltonen; host or cells: snake venom of Agkistrodon piscivorus piscivorus
# T1 sequence (P51972 1-123): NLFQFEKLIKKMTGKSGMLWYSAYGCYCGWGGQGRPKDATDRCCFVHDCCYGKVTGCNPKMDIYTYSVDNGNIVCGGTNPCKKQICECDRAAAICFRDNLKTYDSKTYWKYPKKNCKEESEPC
# From the text: Short-chain phospholipids, such as didecanoyl phosphatidylcholine (DCPC), activate extracellular PLA2. The effect on calcein permeation across the target membranes induced by incorporation of a small amount of DCPC into the carrier PEG-liposomes is also shown in FIG. 12.a. […] In contrast we find that a small amount of cholesterol (≈3 mol %) activates extracellular PLA2. These significant findings are of particular interest since the blood circulation time of PEG-liposomes has been reported to be almost the same without cholesterol as with large amounts of cholesterol.
# [1] = Calcein release across target membrane on adding hydrolysis products in the absence of PLA2; details: 25 μM target membranes, 39° C.
# Method: Total release after 20 min of the fluorescent model drug calcein across the target membrane as a function of adding increasing amounts of lyso-palmitoyl phospholipid and palmitic acid, separately, and in a 1:1 mixture. The concentration of the target membranes is 25 μM in a HEPES buffer with pH=7.5 at a temperature of 39° C.
# The experimental model system consists of a polymer-coated liposome carrier and a model target membrane. The carrier is a 100 nm unilamellar liposome made of dipalmitoyl phosphatidylcholine lipids (DPPC) with 2.5 mol % lipopolymer of the type dipalmitoyl phosphatidylethanolamine (DPPE)-PEG2000. The target membrane is another liposome made of 1,2-O-dioctadecyl-sn-glycero-phosphatidylcholine (D-O-SPC) which is a phospholipid where the acyl linkages of the stearoyl chains are ether bonds. In contrast to DPPC, D-O-SPC is inert towards PLA2-catalysed hydrolysis thereby mimicking the stability of an intact target cell membrane toward degradation by its own enzymes. […] The permeation of calcein across the D-O-SPC target membrane is subsequently monitored by the increase in fluorescence. […]
# [2] = test system: human red blood cells (RBC); assay: Hemolysis assay; details: low concentrations, 37° C., 20 hours
# Method: Briefly, each sample was serially diluted with phosphate buffered saline (PBS), and 0.5 ml of each dilute suspension was mixed with 0.5 ml washed human red blood cells (RBC) [4% in PBS (v/v)]. Sample and standard were placed in a 37° C. incubator and agitated for 20 hours. Tubes were centrifuged at low speed (2000×G) for 10 minutes and 200 μl of the supernatant was quantitated by absorbance at 550 nm. 100 percent hemolysis was defined as the maximum amount of hemolysis obtained from the detergent Triton X-100.
# 1-O-octadecyl-2-O-methyl-sn-glycero-3-phosphocholine (ET-18-OCH3) in PBS was included in the assay as a reference.
# Briefly, each sample was serially diluted with PBS, and 0.5 ml of each dilute suspension of 1-O-DPPC liposomes were mixed with 0.5 ml washed human red blood cells (RBC) [4% in PBS (v/v)]. For controls, 0.5 ml of the red blood cell suspension was mixed with either 0.5 ml buffer solution (negative hemolysis control) or 0.5 ml water (positive hemolysis control). Samples and standard were placed in a 37° C. incubator and agitated for 20 hours. Tubes were centrifuged at low speed (2000×G) for 10 minutes to form RBCs pellets. 200 μl of the supernatant was quantitated by absorbance at 550 nm using a Perkin-Elmer 320 scanning spectrophotometer. 100 percent hemolysis was defined as the maximum amount of hemolysis obtained from the detergent Triton X-100.
# mice = assay: In vivo hemolysis assay; details: i.v., 50 mg/kg
# Method: Groups of mice (n=5/group; weight 18-22 g) were treated i.v. with buffer (PBS), ET-18-OCH3 (50 mg/kg), and liposomes composed of 1-O-DPPC with 5 mol % 1-O-DPPE-PEG2000 (68.7 and 137.5 mg/kg). 30 min after injection, 100 μl blood was collected into heparinised tubes directly from decapitated, CO2-anesthetised mice. The blood was centrifuged at 500×G for 10 min, and plasma was removed and stored at −20° C. until analysed.
# The degree of hemolysis was measured by absorbance at 550 nm using a Perkin-Elmer 320 scanning spectrophotometer. 25 μl plasma was mixed with 2,5 ml PBS or 2.5 ml 10% triton X-100. 100 percent hemolysis was defined as the maximum amount of hemolysis obtained from the plasma of PBS treated mice mixed with 10% Triton X-100 and 0 percent as plasma from PBS treated mice mixed with PBS.
compound,measurement,setting,value
CC(C)CCC[C@@H](C)[C@H]1CC[C@H]2[C@@H]3CC=C4C[C@@H](O)CC[C@]4(C)[C@H]3CC[C@]12C [cholesterol],extracellular PLA2 activity,extracellular PLA2; ≈3 mol % cholesterol incorporated into liposomes,activates
same,extracellular PLA2 activity,"extracellular PLA2; ≈20 mol % cholesterol incorporated into liposomes, data not shown",deactivated
"CCCCCCCCCCCCCCCC(=O)O [fatty acid, palmitic acid]",rate of calcein release across the target membrane (FIG. 13),[1],increased rate
CCCCCCCCCCCCCCCCCCOC[C@H](COP(=O)([O-])OCC[N+](C)(C)C)OC [ET-18-OCH3],hemolysis (FIG. 6),[2],significant degree of hemolysis
same,"Survival (30 min), number of surviving mice",mice,0/5
same,mortality of treated mice,mice,died within the 30 minutes period
